Results: patent US6884820B2, “5,6,7,8-tetrahydronaphthalen-2-yl-7-fluoroalkyl-heptatrienoic acid derivatives having serum glucose reducing activity” (Allergan, Inc., priority 2003, dated 2005)
One block for each molecule: values may come before it.

Assays:
RARα = biological target: T1, RARα (Homo sapiens, UniProt P10276); test: ligand binding assay, RARα
T1 sequence (P10276 1-462): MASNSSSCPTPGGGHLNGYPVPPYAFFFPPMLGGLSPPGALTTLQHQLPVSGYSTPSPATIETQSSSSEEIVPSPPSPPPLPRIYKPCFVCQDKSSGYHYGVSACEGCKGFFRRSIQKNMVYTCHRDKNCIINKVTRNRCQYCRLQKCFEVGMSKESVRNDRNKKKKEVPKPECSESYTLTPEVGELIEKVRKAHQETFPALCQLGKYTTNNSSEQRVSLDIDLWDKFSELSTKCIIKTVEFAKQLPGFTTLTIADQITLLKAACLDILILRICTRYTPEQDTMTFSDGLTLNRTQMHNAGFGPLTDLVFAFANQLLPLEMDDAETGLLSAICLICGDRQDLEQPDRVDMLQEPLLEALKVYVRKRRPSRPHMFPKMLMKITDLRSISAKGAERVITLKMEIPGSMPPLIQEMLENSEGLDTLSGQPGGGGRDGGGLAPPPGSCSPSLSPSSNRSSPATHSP

RXRγ = biological target: T2, RXRγ (Homo sapiens, UniProt P48443); test: holoreceptor transactivation assay, RXRγ; conditions: for RXR γ transactivation efficacy as a percentage compared to the standard compound: value in parentheses, relative to standard compound of U.S. Pat. No. 6,114,533
T2 sequence (P48443 1-463): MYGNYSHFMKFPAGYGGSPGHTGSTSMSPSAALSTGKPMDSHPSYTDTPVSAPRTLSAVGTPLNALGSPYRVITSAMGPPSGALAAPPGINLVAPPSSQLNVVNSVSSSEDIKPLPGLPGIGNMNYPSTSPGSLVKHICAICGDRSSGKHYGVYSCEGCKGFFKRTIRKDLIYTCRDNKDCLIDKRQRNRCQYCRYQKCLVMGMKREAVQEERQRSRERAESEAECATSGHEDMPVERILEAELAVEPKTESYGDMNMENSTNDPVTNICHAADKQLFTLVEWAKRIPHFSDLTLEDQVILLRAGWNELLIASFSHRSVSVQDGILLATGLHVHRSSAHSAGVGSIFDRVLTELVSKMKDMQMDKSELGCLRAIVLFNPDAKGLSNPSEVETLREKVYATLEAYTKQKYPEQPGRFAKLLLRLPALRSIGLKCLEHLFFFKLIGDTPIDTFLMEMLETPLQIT

RXRβ [1] = biological target: T3, RXRβ (Homo sapiens, UniProt P28702); test: ligand binding assay, RXRβ
T3 sequence (P28702 1-533): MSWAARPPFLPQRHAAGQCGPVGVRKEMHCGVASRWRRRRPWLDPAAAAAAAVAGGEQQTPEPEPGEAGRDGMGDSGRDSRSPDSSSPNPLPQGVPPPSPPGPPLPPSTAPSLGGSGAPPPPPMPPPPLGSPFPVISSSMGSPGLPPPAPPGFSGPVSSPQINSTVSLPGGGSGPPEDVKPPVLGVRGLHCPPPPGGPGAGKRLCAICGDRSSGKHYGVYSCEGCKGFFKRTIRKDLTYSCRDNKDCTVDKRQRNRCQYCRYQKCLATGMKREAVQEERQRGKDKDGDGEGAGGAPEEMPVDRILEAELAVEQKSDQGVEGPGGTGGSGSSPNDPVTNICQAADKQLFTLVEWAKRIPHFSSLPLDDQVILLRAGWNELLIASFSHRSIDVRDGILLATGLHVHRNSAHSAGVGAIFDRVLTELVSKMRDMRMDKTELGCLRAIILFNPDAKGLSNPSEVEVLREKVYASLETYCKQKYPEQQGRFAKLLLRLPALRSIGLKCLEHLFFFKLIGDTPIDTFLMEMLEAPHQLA

RARγ [2] = biological target: T4, RARγ (Homo sapiens, UniProt P13631); test: ligand binding assay, RARγ
T4 sequence (P13631 1-454): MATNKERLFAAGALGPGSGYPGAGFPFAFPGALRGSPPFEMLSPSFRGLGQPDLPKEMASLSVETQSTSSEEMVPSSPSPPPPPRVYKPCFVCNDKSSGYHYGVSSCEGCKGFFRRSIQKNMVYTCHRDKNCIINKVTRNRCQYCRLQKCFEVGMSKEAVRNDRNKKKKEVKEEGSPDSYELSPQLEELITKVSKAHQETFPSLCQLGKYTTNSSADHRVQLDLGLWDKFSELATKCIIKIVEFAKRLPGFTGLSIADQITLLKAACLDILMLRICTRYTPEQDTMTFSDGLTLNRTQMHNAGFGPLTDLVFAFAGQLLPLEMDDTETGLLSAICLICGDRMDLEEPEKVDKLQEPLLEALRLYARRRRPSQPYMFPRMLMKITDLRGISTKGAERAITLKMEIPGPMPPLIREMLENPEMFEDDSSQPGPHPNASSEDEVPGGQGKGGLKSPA

RXRα [3] = biological target: T5, RXRα (Homo sapiens, UniProt P19793); test: ligand binding assay, RXRα
T5 sequence (P19793 1-462): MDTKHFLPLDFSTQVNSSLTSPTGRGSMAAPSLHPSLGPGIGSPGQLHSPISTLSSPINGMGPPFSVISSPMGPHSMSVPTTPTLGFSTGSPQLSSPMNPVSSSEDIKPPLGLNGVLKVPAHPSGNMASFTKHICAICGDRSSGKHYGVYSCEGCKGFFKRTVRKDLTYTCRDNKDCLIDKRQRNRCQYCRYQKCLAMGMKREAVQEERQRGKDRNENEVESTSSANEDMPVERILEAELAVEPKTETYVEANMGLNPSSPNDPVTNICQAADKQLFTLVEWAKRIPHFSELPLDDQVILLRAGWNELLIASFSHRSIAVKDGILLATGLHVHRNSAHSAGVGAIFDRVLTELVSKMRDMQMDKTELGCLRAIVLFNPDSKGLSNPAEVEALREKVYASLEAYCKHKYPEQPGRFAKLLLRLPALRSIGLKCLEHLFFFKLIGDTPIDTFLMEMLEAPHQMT

RXRα [4] = biological target: T5, RXRα; test: holoreceptor transactivation assay, RXRα; conditions: for RXR α transactivation efficacy as a percentage compared to the standard compound: value in parentheses, relative to standard compound of U.S. Pat. No. 6,114,533
RARβ [5] = biological target: T6, RARβ (Homo sapiens, UniProt P10826); test: chimeric receptor transactivation assay, RARβ; conditions: for RAR β transactivation efficacy as a percentage compared to the standard compound: value in parentheses, relative to standard compound of U.S. Pat. No. 6,114,533
T6 sequence (P10826 183-417 limits assumed): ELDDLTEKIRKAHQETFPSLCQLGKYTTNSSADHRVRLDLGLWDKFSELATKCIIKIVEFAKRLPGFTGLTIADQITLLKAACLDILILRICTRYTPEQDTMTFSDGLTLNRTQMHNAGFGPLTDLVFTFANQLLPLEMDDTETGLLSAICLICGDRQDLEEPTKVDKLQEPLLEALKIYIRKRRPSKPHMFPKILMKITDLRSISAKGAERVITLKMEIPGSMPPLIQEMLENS

RXRβ [6] = biological target: T3, RXRβ; test: holoreceptor transactivation assay, RXRβ; conditions: for RXR β transactivation efficacy as a percentage compared to the standard compound: value in parentheses, relative to standard compound of U.S. Pat. No. 6,114,533
RARβ [7] = biological target: T7, RARβ (Homo sapiens, UniProt P10826); test: ligand binding assay, RARβ
T7 sequence (P10826 1-455): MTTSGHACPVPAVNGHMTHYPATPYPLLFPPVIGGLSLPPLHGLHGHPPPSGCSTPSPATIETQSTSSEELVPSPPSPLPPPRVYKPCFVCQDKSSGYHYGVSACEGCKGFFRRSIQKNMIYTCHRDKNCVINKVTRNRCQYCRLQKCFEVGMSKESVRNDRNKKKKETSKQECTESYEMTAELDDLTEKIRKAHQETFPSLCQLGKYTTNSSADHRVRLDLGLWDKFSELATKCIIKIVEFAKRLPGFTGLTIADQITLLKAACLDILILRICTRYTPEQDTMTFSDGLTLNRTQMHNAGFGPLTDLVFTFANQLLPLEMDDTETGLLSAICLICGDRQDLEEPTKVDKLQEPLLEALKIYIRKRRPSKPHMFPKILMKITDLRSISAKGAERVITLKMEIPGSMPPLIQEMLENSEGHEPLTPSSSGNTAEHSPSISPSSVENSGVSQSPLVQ

RARγ [8] = biological target: T8, RARγ (Homo sapiens, UniProt P13631); test: chimeric receptor transactivation assay, RARγ
T8 sequence (P13631 185-419 limits assumed): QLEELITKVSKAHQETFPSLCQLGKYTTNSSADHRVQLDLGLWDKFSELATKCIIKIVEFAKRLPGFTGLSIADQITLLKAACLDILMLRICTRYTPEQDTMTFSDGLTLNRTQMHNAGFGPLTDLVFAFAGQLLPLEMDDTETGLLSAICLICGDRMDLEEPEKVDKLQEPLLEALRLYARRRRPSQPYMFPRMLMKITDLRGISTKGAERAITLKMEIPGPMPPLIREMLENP

[9] = system: Female diabetic db/db mice; test: serum glucose, triglyceride and thyroxine levels in female db/db mice; conditions: for Glucose Day 0 / Triglycerides Day 0: Day 0 (pre-treatment), female db/db mice, group later given standard compound 5 mg/kg or Compound 6 50 mg/kg by oral gavage; for Glucose Day 3, 3 h / Triglycerides Day 3, 3 h / Glucose Day 6, 3 h: oral gavage daily
[10] = standard compound 5 mg/kg, Compound 6 50 mg/kg

SMILES: CC(/C=C/C=C(c1cc2c(cc1O)C(C)(C)CCC2(C)C)C(F)(F)F)=C\C(=O)O (stereo in doubt) [Compound 4, (2E,4E,6Z)-8,8,8-Trifluoro-7-(3-hydroxy-5,5,8,8-tetramethyl-5,6,7,8-tetrahydro-naphthalen-2-yl)-3-methyl-octa-2,4,6-trienoic acid]
Ki (RARα): 2.4 µM
EC50 (RXRγ): 0.016 µM
RXR γ transactivation efficacy as a percentage compared to the standard compound (RXRγ): 69%
Ki (RXRβ [1]): 2.6 µM
Ki (RARγ [2]): 0.496 µM
Ki (RXRα [3]): 0.471 µM
EC50 (RXRα [4]): 0.009 µM
RXR α transactivation efficacy as a percentage compared to the standard compound (RXRα [4]): 65%
EC50 (RARγ [8]): > 0.5 µM
RAR γ transactivation efficacy as a percentage compared to the standard compound (RARγ [8]; value in parentheses, relative to standard compound of U.S. Pat. No. 6,114,533): ~30%
EC50 (RARβ [5]): > 0.5 µM
RAR β transactivation efficacy as a percentage compared to the standard compound (RARβ [5]): ~30%
EC50 (RXRβ [6]): 0.067 µM
RXR β transactivation efficacy as a percentage compared to the standard compound (RXRβ [6]): 54%
Ki (RARβ [7]): 4.4 µM

SMILES: CC(/C=C/[C@@H]1C[C@]1(C)c1ccc2c(c1)C(C)(C)CCC2(C)C)=C\C(=O)O [Standard compound]
Glucose Day 0 [9]: 526 ± 135 mg/dL
Triglycerides Day 0 [9]: 290 ± 55 mg/dL
Glucose Day 3, 3 h [9, 10]: 444 ± 125 mg/dL
Triglycerides Day 3, 3 h [9, 10]: 590 ± 422 mg/dL
Glucose Day 6, 3 h [9, 10]: 399 ± 128 mg/dL
T4 Day 7 ([9]; Day 7, oral gavage daily for seven days, standard compound 5 mg/kg, Compound 6 50 mg/kg): 1.5 ± 0.6 µg/dL
effect on serum thyroxine levels ([9]; diabetic mammals): reducing serum thyroxine levels

Further lines, with some results ahead:

Ki (RARα): 0.504 µM
EC50 (RXRγ): 0.002 µM
RXR γ transactivation efficacy as a percentage compared to the standard compound (RXRγ): 121%
Ki (RXRβ [1]): 0.423 µM
Ki (RARγ [2]): 1.2 µM
Ki (RXRα [3]): 0.066 µM
EC50 (RXRα [4]): 0.0006 µM
RXR α transactivation efficacy as a percentage compared to the standard compound (RXRα [4]): 112%
EC50 (RARβ [5]): 0.15 µM
RAR β transactivation efficacy as a percentage compared to the standard compound (RARβ [5]): 32%
EC50 (RXRβ [6]): 0.005 µM
RXR β transactivation efficacy as a percentage compared to the standard compound (RXRβ [6]): 111%
Ki (RARβ [7]): 0.484 µM
SMILES: COc1cc2c(cc1C(=C/C=C/C(C)=C/C(=O)O)C(F)(F)F)C(C)(C)CCC2(C)C (stereo in doubt) [Compound 5, (2E,4E,6Z)-8,8,8-Trifluoro-7-(3-methoxy-5,5,8,8-tetramethyl-5,6,7,8-tetrahydro-naphthalen-2-yl)-3-methyl-octa-2,4,6-trienoic acid]

Ki (RARα): > 10 µM
EC50 (RXRγ): 0.025 µM
RXR γ transactivation efficacy as a percentage compared to the standard compound (RXRγ): 17%
Ki (RXRβ [1]): 0.068 µM
Ki (RARγ [2]): > 10 µM
Ki (RXRα [3]): 0.014 µM
EC50 (RXRα [4]): 0.01 µM
RXR α transactivation efficacy as a percentage compared to the standard compound (RXRα [4]): 17%
EC50 (RARβ [5]): 0.067 µM
RAR β transactivation efficacy as a percentage compared to the standard compound (RARβ [5]): 15%
EC50 (RXRβ [6]): 0.097 µM
RXR β transactivation efficacy as a percentage compared to the standard compound (RXRβ [6]): 30%
Ki (RARβ [7]): 0.372 µM
SMILES: CCOc1cc2c(cc1\C(=C/C=C/C(C)=C/C(=O)O)C(F)(F)F)C(C)(C)CCC2(C)C [Compound 6, (2E,4E,6Z)-7-(3-Ethoxy-5,5,8,8-tetramethyl-5,6,7 8-tetrahydro-naphthalen-2-yl)-8,8,8-trifluoro-3-methyl-octa-2,4,6-trienoic acid]
Glucose Day 0 [9]: 561 ± 159 mg/dL
Triglycerides Day 0 [9]: 350 ± 69 mg/dL
Glucose Day 3, 3 h [9, 10]: 442 ± 164 mg/dL
Triglycerides Day 3, 3 h [9, 10]: 240 ± 192 mg/dL
Glucose Day 6, 3 h [9, 10]: 483 ± 175 mg/dL

Ki (RARα): 1.8 µM
Ki (RXRβ [1]): 0.115 µM
Ki (RARγ [2]): > 10 µM
Ki (RXRα [3]): 0.022 µM
EC50 (RARβ [5]): 0.054 µM
RAR β transactivation efficacy as a percentage compared to the standard compound (RARβ [5]): 9%
Ki (RARβ [7]): 0.452 µM
SMILES: CCCOc1cc2c(cc1C(=C/C=C/C(C)=C/C(=O)O)C(F)(F)F)C(C)(C)CCC2(C)C (stereo in doubt) [Compound 7, (2E,4E,6Z)-8,8,8-Trifluoro-3-methyl-7-(5,5,8,8-tetramethyl-3-propoxy-5,6,7,8-tetrahydro-naphthalen-2-yl)-octa-2,4,6-trienoic acid]
